How the values were obtained:
[1] = system: MCF7; assay: Cytotoxicity against human MCF7 cells after 3 days by MTS assay; format: functional, cell-based; details: MCF7, 72 h
[2] = system: Nucleic Acid; assay: Binding affinity to Sheared herring sperm DNA assessed as remaining displaced EtBr by fluorescent intercalator displacement assay; format: nucleic-acid assay; design: concentration or dose not given beside the values
[3] = system: HT-29; assay: Cytotoxicity against human HT-29 cells after 3 days by MTS assay; format: functional, cell-based; details: HT-29, 72 h
[4] = system: HepG2; assay: Cytotoxicity against human HepG2 cells after 3 days by MTS assay; format: functional, cell-based; details: HepG2, 72 h
[5] = system: HT-29; assay: Cytotoxicity against human HT-29 cells assessed as cell viability at 25 uM after 3 days by MTS assay; format: functional; details: HT-29, 72 h, read-out: Activity
[6] = system: HepG2; assay: Cytotoxicity against human HepG2 cells assessed as cell viability at 25 uM after 3 days by MTS assay; format: functional; details: HepG2, 72 h, read-out: Activity
[7] = system: MCF7; assay: Cytotoxicity against human MCF7 cells assessed as cell viability at 25 uM after 3 days by MTS assay; format: functional; details: MCF7, 72 h, read-out: Activity
[8] = system: MCF7; assay: Cytotoxicity against human MCF7 cells at 25 µM after 3 days by MTS assay; details: MCF7, 72 h

CC(=O)N[C@H]1CC[C@H](OCC#Cc2c(-c3ccccc3)oc3ccccc23)O[C@H]1C
IC50 [1]: 23.4 µM
Activity [2]: 98.6%
IC50 [3]: 13.3 µM
IC50 [4]: 18.2 µM

C[C@@H]1O[C@@H](OCC#Cc2c(-c3ccccc3)oc3ccccc23)CC[C@@H]1N
Activity [2]: 68.5%
viability at 25 µM [5]: < 1%
viability at 25 µM [6]: < 1%
viability at 25 µM [7]: < 1%

CCCCCCN[C@H]1CC[C@H](OCC#Cc2c(-c3ccccc3)sc3ccccc23)O[C@H]1C
IC50 [1]: 6.8 µM
IC50 [3]: 5.1 µM
IC50 [4]: 19.1 µM

C[C@@H]1O[C@@H](OCC#Cc2c(-c3ccccc3)sc3ccccc23)CC[C@@H]1N(C)CC#N
IC50 [1]: 7.7 µM
IC50 [3]: 6.2 µM
IC50 [4]: 12.3 µM

C[C@@H]1O[C@@H](OCC#Cc2c(-c3ccccc3)sc3ccccc23)CC[C@@H]1NCC#N
IC50 [1]: 10.5 µM
IC50 [3]: 10.8 µM
IC50 [4]: 18 µM

CCCCN[C@H]1CC[C@H](OCC#Cc2c(-c3ccccc3)sc3ccccc23)O[C@H]1C
IC50 [1]: 10.2 µM
IC50 [3]: 7 µM
IC50 [4]: 18.6 µM

CN[C@H]1CC[C@H](OCC#Cc2c(-c3ccccc3)sc3ccccc23)O[C@H]1C
IC50 [1]: 7.1 µM
IC50 [3]: 5.4 µM
IC50 [4]: 8.8 µM

C[C@@H]1O[C@@H](OCC#Cc2c(-c3ccccc3)sc3ccccc23)CC[C@@H]1NCc1ccccc1
IC50 [1]: > 25 µM
IC50 [3]: 19 µM
IC50 [4]: > 25 µM

C[C@@H]1O[C@@H](OCC#Cc2c(-c3ccccc3)oc3ccccc23)CC[C@@H]1NCC1CCCCC1
IC50 [1]: > 25 µM
IC50 [3]: 10.2 µM
IC50 [4]: > 25 µM

C[C@@H]1O[C@@H](OCC#Cc2c(-c3ccccc3)oc3ccccc23)CC[C@@H]1NCc1ccc(O)cc1
IC50 [1]: 10.9 µM
viability at 25 µM [5]: < 1%
IC50 [3]: 5.8 µM
viability at 25 µM [6]: < 1%
IC50 [4]: 13.4 µM
viability at 25 µM [7]: 2%

COc1ccc(CN[C@H]2CC[C@H](OCC#Cc3c(-c4ccccc4)oc4ccccc34)O[C@H]2C)cc1
cell viability at 25 µM [8]: 31%
viability at 25 µM [5]: 8%
IC50 [3]: 7.9 µM
viability at 25 µM [6]: 12%
IC50 [4]: 13.1 µM
viability at 25 µM [7]: 31%

CCCCN(CCCC)[C@H]1CC[C@H](OCC#Cc2c(-c3ccccc3)sc3ccccc23)O[C@H]1C
IC50 [1]: > 25 µM
IC50 [3]: > 25 µM
IC50 [4]: > 25 µM

CCN(CC)[C@H]1CC[C@H](OCC#Cc2c(-c3ccccc3)oc3ccccc23)O[C@H]1C
IC50 [1]: 9.7 µM
IC50 [3]: 6.8 µM
IC50 [4]: 10.7 µM

C[C@@H]1O[C@@H](OCC#Cc2c(-c3ccccc3)sc3ccccc23)CC[C@@H]1N(C)C
IC50 [1]: 8.2 µM
IC50 [3]: 3.3 µM
IC50 [4]: 10 µM

CC(C)CCN[C@H]1CC[C@H](OCC#Cc2c(-c3ccccc3)oc3ccccc23)O[C@H]1C
IC50 [1]: 11.3 µM
IC50 [3]: 6.6 µM
IC50 [4]: 13.6 µM

C[C@H](N)C(=O)N[C@H]1CC[C@H](OCC#Cc2c(-c3ccccc3)oc3ccccc23)O[C@H]1C
IC50 [1]: 8 µM
Activity [2]: 52.9%
IC50 [3]: 6.8 µM
IC50 [4]: 4.1 µM

C[C@@H]1O[C@@H](OCC#Cc2c(-c3ccccc3)oc3ccccc23)CC[C@@H]1NCc1ccccn1
IC50 [1]: 14.3 µM
viability at 25 µM [5]: < 1%
IC50 [3]: 10.8 µM
viability at 25 µM [6]: < 1%
IC50 [4]: 16.3 µM
viability at 25 µM [7]: 11%

CCN(CC)[C@H]1CC[C@H](OCC#Cc2c(-c3ccccc3)sc3ccccc23)O[C@H]1C
IC50 [1]: 12 µM
IC50 [3]: 3.9 µM
IC50 [4]: 11.7 µM

C[C@@H]1O[C@@H](OCC#Cc2c(-c3ccccc3)oc3ccccc23)CC[C@@H]1NCc1ccc([N+](=O)[O-])cc1
IC50 [1]: > 25 µM
viability at 25 µM [5]: 59%
IC50 [3]: > 25 µM
viability at 25 µM [6]: 94%
IC50 [4]: > 25 µM
viability at 25 µM [7]: 86%

CC(C)N[C@H]1CC[C@H](OCC#Cc2c(-c3ccccc3)oc3ccccc23)O[C@H]1C
IC50 [1]: 12.6 µM
Activity [2]: 79%
IC50 [3]: 5.8 µM
IC50 [4]: 13 µM

C[C@@H]1O[C@@H](OCC#Cc2c(-c3ccccc3)oc3ccccc23)CC[C@@H]1NCc1ccc[nH]1
IC50 [1]: 18.1 µM
viability at 25 µM [5]: < 1%
IC50 [3]: 11.1 µM
viability at 25 µM [6]: < 1%
IC50 [4]: 20.8 µM
viability at 25 µM [7]: 14%

C[C@@H]1O[C@@H](OCC#Cc2c(-c3ccccc3)oc3ccccc23)CC[C@@H]1NCc1ccccc1
IC50 [1]: > 25 µM
viability at 25 µM [5]: 31%
IC50 [3]: 17.9 µM
viability at 25 µM [6]: 87%
IC50 [4]: > 25 µM
viability at 25 µM [7]: 72%

CCN[C@H]1CC[C@H](OCC#Cc2c(-c3ccccc3)sc3ccccc23)O[C@H]1C
IC50 [1]: 5.9 µM
IC50 [3]: 3.4 µM
IC50 [4]: 6.6 µM

C[C@@H]1O[C@@H](OCC#Cc2c(-c3ccccc3)sc3ccccc23)CC[C@@H]1NCc1ccc(O)cc1
IC50 [1]: 12 µM
IC50 [3]: 5.1 µM
IC50 [4]: 20.3 µM

C[C@@H]1O[C@@H](OCC#Cc2c(-c3ccccc3)oc3ccccc23)CC[C@@H]1NCc1ccco1
IC50 [1]: > 25 µM
viability at 25 µM [5]: 24%
IC50 [3]: 15.2 µM
viability at 25 µM [6]: 70%
IC50 [4]: > 25 µM
viability at 25 µM [7]: 77%

CCN[C@H]1CC[C@H](OCC#Cc2c(-c3ccccc3)oc3ccccc23)O[C@H]1C
IC50 [1]: 9.2 µM
Activity [2]: 26%
IC50 [3]: 5.8 µM
IC50 [4]: 6 µM

CCCCCCN[C@H]1CC[C@H](OCC#Cc2c(-c3ccccc3)oc3ccccc23)O[C@H]1C
IC50 [1]: 14.8 µM
IC50 [3]: 6 µM
IC50 [4]: 14.4 µM

C[C@@H]1O[C@@H](OCC#Cc2c(-c3ccccc3)oc3ccccc23)CC[C@@H]1N(C)C
IC50 [1]: 10.3 µM
IC50 [3]: 6.1 µM
IC50 [4]: 6.8 µM

CCCCN[C@H]1CC[C@H](OCC#Cc2c(-c3ccccc3)oc3ccccc23)O[C@H]1C
IC50 [1]: 20.8 µM
IC50 [3]: 9.8 µM
IC50 [4]: 19 µM

Cc1ccc(CN[C@H]2CC[C@H](OCC#Cc3c(-c4ccccc4)oc4ccccc34)O[C@H]2C)cc1
IC50 [1]: > 25 µM
viability at 25 µM [5]: 29%
IC50 [3]: 11.9 µM
viability at 25 µM [6]: 65%
IC50 [4]: > 25 µM
viability at 25 µM [7]: 51%

CC(C)CCN(CCC(C)C)[C@H]1CC[C@H](OCC#Cc2c(-c3ccccc3)oc3ccccc23)O[C@H]1C
IC50 [1]: > 25 µM
IC50 [3]: > 25 µM
IC50 [4]: > 25 µM

CCCCN(CCCC)[C@H]1CC[C@H](OCC#Cc2c(-c3ccccc3)oc3ccccc23)O[C@H]1C
IC50 [1]: > 25 µM
IC50 [3]: > 25 µM
IC50 [4]: > 25 µM

COc1ccc(CN[C@H]2CC[C@H](OCC#Cc3c(-c4ccccc4)sc4ccccc34)O[C@H]2C)cc1
IC50 [1]: > 25 µM
IC50 [3]: 6.2 µM
IC50 [4]: > 25 µM

COc1cc(CN[C@H]2CC[C@H](OCC#Cc3c(-c4ccccc4)oc4ccccc34)O[C@H]2C)cc(OC)c1OC
cell viability at 25 µM [8]: 30%
viability at 25 µM [5]: 6%
IC50 [3]: 8 µM
viability at 25 µM [6]: 7%
IC50 [4]: 11.3 µM
viability at 25 µM [7]: 30%

Source: ChEMBL document CHEMBL1770050, “Effect of carbohydrate amino group modifications on the cytotoxicity of glycosylated 2-phenyl-benzo[b]thiophenes and 2-phenyl-benzo[b]furans” (Bioorg Med Chem Lett, 2011)
